Test results taken from patent US7138361B2, “Herbicidal heterocycles” (E. I. du Pont de Nemours and Company, priority 2000, dated 2006).

Legend:
Assay type in all cases: in vivo
[1] = system: barnyardgrass (Echinochloa crus-galli); assay: Test B postemergence; details: 13 to 15 days
Outline: (§1)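 Pre: seeded pots sprayed, chemical in non-phytotoxic solvent/surfactant mix. Post: plants 2–18 cm, 1–4 leaf, same formulation. Greenhouse 13–15 d; visual % control vs untreated, 0–100 scale.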

corn (Zea mays) [2] = assay: Test B postemergence; details: 13 to 15 days
Outline: as §1

[3] = system: wheat (Triticum aestivum); assay: Test B postemergence; details: 13 to 15 days
Outline: as §1

wild oat (Avena fatua) = assay: Test B postemergence; details: 13 to 15 days
Outline: as §1

Nightshade = assay: Test C preemergence
corn (Zea mays) [4] = assay: Test C preemergence
Outline: (§2)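 Pre- and postemergence treatments used a non-phytotoxic solvent/surfactant formulation; post-treated plants measured 2 to 18 cm. Greenhouse hold 12–14 d; % control estimated visually relative to controls.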

kochia (Kochia scoparia) = assay: Test C preemergence
Outline: as §2

[5] = system: lambsquarters (Chenopodium album); assay: Test C preemergence
Outline: as §2

[6] = system: pigweed (Amaranthus retroflexus); assay: Test C preemergence
Outline: as §2

soybean (Glycine max) = assay: Test C preemergence
Outline: as §2

[7] = system: woolly cupgrass (Eriochloa villosa); assay: Test C preemergence
Outline: as §2

[8] = system: barnyardgrass (Echinochloa crus-galli); assay: Test C flooded paddy test; details: for Barnyardgrass plant response rating: scale 0 to 100, 0 no effect, 100 complete control
Outline: (§3)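 Greenhouse-maintained for 12 to 14 days after treatment, the paddy plants (2-leaf stage at application) were scored visually against controls. A score of 0 denotes no effect and a score of 100 denotes complete control.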

[9] = system: duck salad (Heteranthera limosa); assay: Test C flooded paddy test; details: for Ducksalad plant response rating: scale 0 to 100, 0 no effect, 100 complete control
Outline: as §3

rice (Oryza saliva) = assay: Test C flooded paddy test; details: for Rice plant response rating: scale 0 to 100, 0 no effect, 100 complete control
Outline: as §3

[10] = system: smallflower flatsedge (Cyperus difformis); assay: Test C flooded paddy test; details: for Flatsedge plant response rating: Flooded Paddy, scale 0 to 100, 0 no effect, 100 complete control; for Plant response rating, Flatsedge / Plant response rating (scale 0 to 100), Flatsedge: flooded paddy test; for Plant response rating, Flatsedge: scale 0 to 100 (0 no effect, 100 complete control)
Outline: as §3

[11] = Rate 125 g/ha, scale 0 (no effect) to 100 (complete control)
[12] = Rate 500 g/ha, scale 0 to 100, 0 is no effect, 100 is complete control
[13] = Rate 62 g/ha, scale 0 to 100, 0 no effect, 100 complete control
[14] = preemergence, Rate 31 g/ha, scale 0 to 100
[15] = preemergence, Rate 125 g/ha, scale 0 to 100, 0 no effect, 100 complete control
[16] = flooded paddy test, Rate 62 g/ha, scale 0 to 100 (0 no effect, 100 complete control)
[17] = flooded paddy test, Rate 125 g/ha, scale 0 to 100 (0 no effect, 100 complete control)
[18] = flooded paddy test, Rate 16 g/ha, visually evaluated after 12 to 14 days, 0 = no effect, 100 = complete control
[19] = flooded paddy test, under head Rate 16 g/ha, (own rate not given), after 12 to 14 days
[20] = Flooded Paddy, Rate 500 g/ha, scale 0 to 100

COc1cc(N2CCC(n3ccc(C(C)(C)C)n3)C2=O)ccc1C (centres unmarked) [Compound 42]
Plant response rating, Barnyardgrass [1, 11]: 60 | Plant response rating, Barnyardgrass [1, 12]: 100 | Plant response rating, Corn (corn (Zea mays) [2]; [11]): 0 | Plant response rating, Corn (corn (Zea mays) [2]; [12]): 40 | Plant response rating, Wheat [3, 11]: 0 | Plant response rating, Wheat [3, 12]: 0 | Plant response rating, Wild Oat (wild oat (Avena fatua); [11]): 0 | Plant response rating, Wild Oat (wild oat (Avena fatua); [12]): 40 | Plant response rating, Nightshade (Nightshade; Rate 31 g/ha, scale 0 to 100): 0 | Plant response rating, Nightshade (Nightshade; [13]): 0 | Plant response rating, Nightshade (Nightshade; Rate 125 g/ha, scale 0 to 100, 0 no effect, 100 complete control): 100 | Plant response rating, Corn (corn (Zea mays) [4]; [13]): 20 | Plant response rating, Corn (corn (Zea mays) [4]; [14]): 0 | Plant response rating, Corn (corn (Zea mays) [4]; [15]): 40 | Plant response rating, Kochia (kochia (Kochia scoparia); [13]): 50 | Plant response rating, Kochia (kochia (Kochia scoparia); [14]): 20 | Plant response rating, Kochia (kochia (Kochia scoparia); [15]): 100 | Plant response rating, Lambsquarters [5, 13]: 100 | Plant response rating, Lambsquarters [5, 14]: 20 | Plant response rating, Lambsquarters [5, 15]: 100 | Plant response rating, Pigweed [6, 13]: 60 | Plant response rating, Pigweed [6, 14]: 0 | Plant response rating, Pigweed [6, 15]: 100 | Plant response rating, Soybean (soybean (Glycine max); [13]): 50 | Plant response rating, Soybean (soybean (Glycine max); [14]): 20 | Plant response rating, Soybean (soybean (Glycine max); [15]): 50 | Plant response rating, Cupgrass, Woolly [7, 13]: 20 | Plant response rating, Cupgrass, Woolly [7, 14]: 0 | Plant response rating, Cupgrass, Woolly [7, 15]: 100 | Barnyardgrass plant response rating ([8]; Flooded Paddy, Rate 250 g/ha): 100 | Barnyardgrass plant response rating ([8]; Flooded Paddy, Rate 500 g/ha): 100 | Plant response rating, Barnyardgrass [8, 16]: 100 | Plant response rating, Barnyardgrass [8, 17]: 100 | Plant response rating (scale 0 to 100), Barnyardgrass [8, 18]: 70 | Plant response rating (scale 0 to 100), Barnyardgrass [8, 19]: 50 | Ducksalad plant response rating ([9]; Flooded Paddy, Rate 250 g/ha): 100 | Ducksalad plant response rating ([9]; Flooded Paddy, Rate 500 g/ha): 100 | Plant response rating, Ducksalad [9, 16]: 100 | Plant response rating, Ducksalad [9, 17]: 100 | Plant response rating (scale 0 to 100), Ducksalad [9, 18]: 90 | Plant response rating (scale 0 to 100), Ducksalad [9, 19]: 80 | Rice plant response rating (rice (Oryza saliva); Flooded Paddy, Rate 250 g/ha): 70 | Rice plant response rating (rice (Oryza saliva); Flooded Paddy, Rate 500 g/ha): 80 | Plant response rating, Rice (rice (Oryza saliva); [16]): 20 | Plant response rating, Rice (rice (Oryza saliva); [17]): 40 | Plant response rating (scale 0 to 100), Rice (rice (Oryza saliva); [18]): 0 | Plant response rating (scale 0 to 100), Rice (rice (Oryza saliva); [19]): 0 | Flatsedge plant response rating ([10]; Rate 250 g/ha): 100 | Flatsedge plant response rating ([10]; Rate 500 g/ha): 100 | Plant response rating, Flatsedge ([10]; Rate 62 g/ha): 100 | Plant response rating, Flatsedge ([10]; Rate 125 g/ha): 100 | Plant response rating (scale 0 to 100), Flatsedge ([10]; Rate 16 g/ha, visually evaluated after 12 to 14 days, 0 = no effect, 100 = complete control): 100 | Plant response rating (scale 0 to 100), Flatsedge ([10]; under head Rate 16 g/ha, (own rate not given), after 12 to 14 days): 100

CC1CCc2cn(C3CCN(c4cccc(C(F)(F)F)c4)C3=O)nc21 (centres unmarked) [Compound 11]
Plant response rating, Barnyardgrass [1, 11]: 0 | Plant response rating, Barnyardgrass [1, 12]: 0 | Plant response rating, Corn (corn (Zea mays) [2]; [11]): 0 | Plant response rating, Corn (corn (Zea mays) [2]; [12]): 0 | Plant response rating, Wheat [3, 11]: 0 | Plant response rating, Wheat [3, 12]: 0 | Plant response rating, Wild Oat (wild oat (Avena fatua); [11]): 0 | Plant response rating, Wild Oat (wild oat (Avena fatua); [12]): 0 | Plant response rating, Barnyardgrass [8, 20]: 80 | Barnyardgrass plant response rating ([8]; Flooded Paddy, Rate 250 g/ha): 30 | Plant response rating, Barnyardgrass [8, 16]: 0 | Plant response rating, Barnyardgrass [8, 17]: 20 | Plant response rating, Ducksalad [9, 20]: 30 | Ducksalad plant response rating ([9]; Flooded Paddy, Rate 250 g/ha): 20 | Plant response rating, Ducksalad [9, 16]: 0 | Plant response rating, Ducksalad [9, 17]: 20 | Plant response rating, Rice (rice (Oryza saliva); [20]): 30 | Rice plant response rating (rice (Oryza saliva); Flooded Paddy, Rate 250 g/ha): 20 | Plant response rating, Rice (rice (Oryza saliva); [16]): 0 | Plant response rating, Rice (rice (Oryza saliva); [17]): 0 | Flatsedge plant response rating ([10]; Rate 250 g/ha): 90 | Flatsedge plant response rating ([10]; Rate 500 g/ha): 100 | Plant response rating, Flatsedge ([10]; Rate 62 g/ha): 90 | Plant response rating, Flatsedge ([10]; Rate 125 g/ha): 90
